Experimental findings from patent US6703407B1, “Benzofuran compounds, compositions, and methods” (Eli Lilly and Company, priority 1994, dated 2004) are described below.

Common to all, as to assay type: in vivo, Sprague Dawley rats
Series [1] deals with ovariectomized rats. In words: Uterine weight in ovariectomized rat post-menopausal model (4-day dosing). As to conditions: for Uterine Weight (% increase vs. OVX): OVX rats, oral daily for 4 days. As for the experimental part: (§1) In the examples illustrating the methods, a post-menopausal model was used in which effects of different treatments upon circulating lipids were determined.
(§2) Seventy-five day old female Sprague Dawley rats (weight range of 200 to 225 g) were obtained from Charles River Laboratories (Portage, Mich.). The animals were either bilaterally ovariectomized (OVX) or exposed to a Sham surgical procedure at Charles River Laboratories, and then shipped after one week. Upon arrival, they were housed in metal hanging cages in groups of 3 or 4 per cage and had ad libitum access to food (calcium content approximately 0.5%) and water for one week. Room temperature was maintained at 22.20±1.7° C. with a minimum relative humidity of 40%. The photoperiod in the room was 12 hours light and 12 hours dark.
(§3) Dosing Regimen Tissue Collection. After a one week acclimation period (therefore, two weeks post-OVX) daily dosing with test compound was initiated. 17α-ethynyl estradiol or the test compound were given orally, unless otherwise stated, as a suspension in 1% carboxymethylcellulose or dissolved in 20% cyclodextrin. Animals were dosed daily for 4 days. Following the dosing regimen, animals were weighed and anesthetized with a ketamine: Xylazine (2:1, V:V) mixture and a blood sample was collected by cardiac puncture. The animals were then sacrificed by asphyxiation with CO2, the uterus was removed through a midline incision, and a wet uterine weight was determined.

Series [2] has as its system Uterine Eosinophil Peroxidase (EPO). In words: Uterine Eosinophil Peroxidase (EPO) Assay. As to conditions: for Uterine EPO (V. max): OVX rats, oral daily for 4 days.
From the text: as §2, §3
Uterine Eosinophil Peroxidase (EPO) Assay. Uteri were kept at 4° C. until time of enzymatic analysis. The uteri were then homogenized in 50 volumes of 50 mM Tris buffer (pH−8.0) containing 0.005% Triton X-100. Upon addition of 0.01% hydrogen peroxide and 10 mM o-phenylenediamine (final concentrations) in Tris buffer, increase in absorbance was monitored for one minute at 450 nm. The presence of eosonophils in the uterus is an indication of estrogenic activity of a compound. The maximal velocity of a 15 second interval was determined over the initial, linear portion of the reaction curve.

The test system of series [3] is ovariectomized rats. Description: Serum cholesterol in ovariectomized rat post-menopausal model (4-day dosing). The conditions noted are these: oral daily for 4 days. How it is done: as §1, §2, §3
Cholesterol Analysis. Blood samples were allowed to clot at room temperature for 2 hours, and serum was obtained following centrifugation for 10 minutes at 3000 rpm. Serum cholesterol was determined using a Boehringer Mannheim Diagnostics high performance cholesterol assay. Briefly the cholesterol was oxidized to cholest-4-en-3-one and hydrogen peroxide. The hydrogen peroxide was then reacted with phenol and 4-aminophenazone in the presence of peroxidase to produce a p-quinone imine dye, which was read spectrophotemetrically at 500 nm. Cholesterol concentration was then calculated against a standard curve. The entire assay was automated using a Biomek Automated Workstation.

Turning to `C#C[C@]1(O)CC[C@H]2[C@@H]3CCc4cc(O)ccc4[C@H]3CC[C@@]21C` [EE2, 17α-ethynyl estradiol, reference compound], in the series on ovariectomized rats [1] (dose 0.1 mg/kg), the “Uterine Weight (% increase vs. OVX)” value is given as 172.8 % increase vs. OVX. Moreover, in the series on ovariectomized rats [1] (orally administered at 0.1 mg/Kg/day), the “uterine weight vs. ovariectomized test animals (in words)” value was “substantially greater than the uterine weight of ovariectomized test animals”. In series [2] (dose 0.1 mg/kg), the “Uterine EPO (V. max)” value was 201.9 V. max. For the same compound, the “eosinophil infiltration into the uterus (number of eosinophils in the stromal layer, in words)” value in series [2] (ovariectomized rats) is listed as “substantial, expected increase in eosinophil infiltration”. Also, the “Serum Cholesterol (% decrease vs. OVX)” value in the series on ovariectomized rats [3] (dose 0.1 mg/kg) worked out at 92.6 % decrease vs. OVX.

In the case of `Cl.Oc1ccc(-c2oc3cc(O)ccc3c2Cc2ccc(OCCN3CCCCC3)cc2)cc1` [Ex-3, [2-(4-Hydroxyphenyl)-6-hydroxybenzofuran-3-yl][4-[2-(1-piperidinyl)ethoxy]phenyl]methane Hydrochloride], the entries for the “Uterine Weight (% increase vs. OVX)” value in the series on ovariectomized rats [1] (dose 0.1 mg/kg), in the series on ovariectomized rats [1] (dose 1.0 mg/kg) and with ovariectomized rats [1] (dose 10.0 mg/kg) were 8.6 % increase vs. OVX, 26.3 % increase vs. OVX and 30.1 % increase vs. OVX, respectively. Besides, the “Uterine EPO (V. max)” value is given as 4.7 V. max in series [2] (dose 0.1 mg/kg), 5.8 V. max in series [2] (dose 1.0 mg/kg) and 11.3 V. max in series [2] (dose 10.0 mg/kg). Further, the “Serum Cholesterol (% decrease vs. OVX)” value in the series with ovariectomized rats [3] (dose 0.1 mg/kg) was found to be 38.9 % decrease vs. OVX; with ovariectomized rats [3] (dose 1.0 mg/kg), 53.0 % decrease vs. OVX; in the series on ovariectomized rats [3] (dose 10.0 mg/kg), 73.3 % decrease vs. OVX.
